Here are results for 13 compounds from PMC6273649, “Synthesis of Novel Quaternary Ammonium Salts and Their in Vitro Antileishmanial Activity and U-937 Cell Cytotoxicity” (Molecules, 2016).

As a reminder, the EC50 is the midpoint of the concentration-response curve.

The nature of series [1]: in vitro. The procedure: U-937 promonocytes (CRL1593.2™) were obtained from the American Type Culture Collection (ATCC, Manassas, VA, USA), cultured in complete medium containing RPMI 1640 medium (Sigma) supplemented with 10% fetal bovine serum (FBS) (Gibco, Life Technologies, Grand Island, NY, USA) and 1% antibiotics (100 U/mL penicillin and 0.1 mg/mL streptomycin) (Sigma). Cells were maintained in standard conditions at 37 °C, 5% CO2 with change of medium every three days until use.
The cytotoxicity of compounds was assessed based on the viability of U-937 cells and evaluated by the MTT (3-(4,5-dimethylthiazol-2-yl)-2,5-diphenyltetrazolium bromide) method as described by others. Briefly, into each well of a 96-well cell-culture dishes 100,000 cells/100 μL were dispensed in RPMI-1640 supplemented with 10% FBS and 100 μL of the corresponding concentrations of the corresponding product. Six two fold serial dilutions were tested starting at 200 µg/mL (200, 100, 50, 25, 12.5 and 6.25 μg/mL). Cells were incubated at 37 °C with 5% CO2 for 72 h in the presence of compounds, and then the effect was determined by measuring the activity of the mitochondrial dehydrogenase by adding 10 µL/well of MTT solution (0.5 mg/mL) and incubating at 37 °C for 3 h. The reaction was stopped by adding 100 μL /well of 50% isopropanol solution with 10% sodium dodecyl sulfate for 30 min. Cell growth was determined based on the quantity of formazan produced, which was measured at 570 nm in a plate reader spectrophotometer (Bio-Rad, Hercules, CA, USA). Cells cultured in the absence of products were used as cell growth controls (negative control), while cells cultured in presence of amphotericin B (AmB, Sigma) and meglumine antimoniate (MA, Sanofi-Aventis, Bogotá, Colombia) were used as cytotoxicity controls (positive control). Each concentration was tested in triplicate in at least two independent experiments.
Cytotoxicity was determined according to the percentages of cell growth (viability) obtained for each tested compound or medium alone. Percentages of viability were calculated first using Equation (1): % Viability = (O.D. of treated cells)/(O.D. of untreated cells) × 100(1) where the O.D. of the untreated cells corresponds to 100% viability. Then, the percentage of cell growth inhibition was calculated using Equation (2): % Cell growth inhibition = 100 − % Viability(2)
The degree of cytotoxicity was established as convenient according to the LC50 values, using our own scale: high cytotoxicity: LC50 < 100 μg/mL, moderate cytotoxicity: 100 μg/mL < LC50 < 200 μg/mL; and potential non-cytotoxicity: LC50 > 200 μg/mL.

Series [2] has as its system intracellular amastigotes of L. (V) panamensis-pIR-eGFP. As to the kind of experiment: organism not typed. The class given is cell-based. Conditions: for EC50: U-937, 72 h, read-out: Intracellular Amastigotes EC50; for degree of leishmanicidal activity, intracellular amastigotes: authors' own scale by EC50. The procedure:
(§1) Virulent L. (V) panamensis MHOM/CO/87/UA140 strain transfected with green fluorescent protein gene called L. (V) panamensis-pIR-eGFP was maintained by successive passaging in golden hamsters (Mesocricetus auratus). Briefly, amastigotes were aspirated from cutaneous lesions of hamsters experimentally infected with promastigotes of L. (V) panamensis-pIR-eGFP. Samples were cultured in biphasic culture with Novy-MacNeal-Nicholle (NNN) medium as solid phase and PBS plus glucose, pH 6.9 as liquid phase and incubated at 26 °C to obtain promastigotes. Medium was changed every week until 2 months.
Intracellular amastigotes were obtained after infection of U-937 cells with promastigotes. Briefly, U-937 cells were dispensed in 24-well plates at a concentration of 300,000 cells/well and were treated with 1 µM of phorbol myristate acetate (PMA) (Sigma) for 48 h at 37 °C. Then, cells were infected with promastigotes in stationary growth phase (day 5) at a ratio of 1:15 cell/parasite and incubated for 3 h at 34 °C in 5% CO2. […] After 24 h of infection, cells were ready to be used in antileishmanial testing assay as described below.
The effect of compounds against intracellular amastigotes of L. (V) panamensis-pIR-eGFP was evaluated by flow cytometry using the methodology described by others. […] Infected and treated cells were maintained at 34 °C and 5% CO2 for 72 h. After 72 h, cells were washed twice with 1 mL of cold PBS and cells were removed from the bottom plate with a trypsin/EDTA ([…]) solution. Recovered cells were centrifuged at 1100 rpm for 10 min at 4 °C, the supernatant was discarded and cells were washed with 1 mL of cold PBS and centrifuged at 1100 rpm for 10 min at 4 °C. Supernatant was discarded and cells were suspended in 500 μL of PBS and analyzed by flow cytometry (FC 500MPL, Cytomics, Brea, CA, USA) using histogram analyses (Figure 2). […] Each concentration of compounds was tested in triplicate in two independent experiments.
The antileishmanial activity in intracellular amastigotes was determined according to the reduction of infected cells and parasite load (viable parasites inside infected cells) obtained for each experimental condition. The percentage of infected cell inhibition and parasite load for each concentration of each compound were calculated first using Equation (3): % infection = (% infected and treated cells ÷ % infected and untreated cells) × 100(3)
And then, the percentage of infection inhibition was calculated using Equation (4): % Inhibition = 100 − % infection(4)

In series [3] the test system is axenic amastigotes of L. (V) panamensis. Nature of the series: organism not typed. Conditions: for degree of leishmanicidal activity, axenic amastigotes: authors' own scale by EC50. In kind it is cell-based. The procedure: as §1
The axenic amastigotes were obtained from promastigotes cutured in Schneider’s medium, as described elsewhere. Briefly, promastigotes of L. (V) panamensis-pIR-eGFP at 5 × 10^6 parasites/mL were cultured in Schneider medium (Sigma), pH 5.4 supplemented with 20% FBS and 1% antibiotics and incubation at 26 °C. Every three days, medium was changed and temperature was increased one degree each time until it reached 32 °C at which the transformation of the promastigotes into axenic amastigotes is achieved. After three days of growing as axenic amastigotes, parasites were ready to be used in the antileishmanial testing assay as described below.
The ability of compounds to kill axenic amastigotes of L. (V) panamensis was determined based on the viability of the parasites after exposure to each compound evaluated by the MTT method following the methodology described by others. Axenic amastigotes obtained as described above were harvested, washed, and adjusted at 2 × 10^6 parasites/mL in fresh Schneider’s medium with 20% FBS. Into each well of a 96-well plate 100 µL of parasite suspension (2 × 10^5 axenic amastigotes) were dispensed and then 100 µL of each concentration of the corresponding compound were added. […] Plates were incubated at 32 °C. After 72 h of incubation, the effect of each compound was determined by adding 10 µL/well of MTT and incubating at 32 °C for 3 h. The reaction was stopped as described above and the quantity of formazan produced was measured in a plate reader spectrophotometer (Bio-Rad) set at 570 nm. Axenic amastigotes cultivated in the absence of any compound but maintained under the same conditions were used as controls for growth and viability (negative control) while parasites cultivated in the presence of MA were used as controls for leishmanicidal activity (positive control). Assays were performed at least twice with three replicates per each concentration tested.
In turn, activity of compounds with axenic amastigotes was determined according to the reduction of parasite growth percentages obtained for each experimental condition. The percentage of parasite growth was calculated first using Equation (5): % parasite growth = (O.D. treated ax. amastigotes)/(O.D. of untreated ax. amastigotes) × 100(5) where the O.D. of the untreated axenic amastigotes corresponds to 100% parasite growth. Then, the percentage of parasite growth inhibition was calculated using Equation (6): % parasite growth inhibition = 100 − % parasite growth(6)

Where [4] appears, read: L. (V) panamensis in U-937 cells, flow cytometry, 72 h, mean ± standard deviation.
[5] abbreviates: 72 h, L. (V) panamensis axenic amastigotes, MTT, 72 h, mean ± standard deviation, read-out: Axenic Amastigotes EC50.

Structures are written as SMILES. Values after ≈ are worked out from the molar mass of the structure shown. Where two headings read alike, the source gives them in different places.

Compound `C[N+](C)(CI)CCCC=C(c1ccccc1)c1ccccc1.[I-]` [Compound 2b, N-Iodomethyl-N,N-dimethyl-N-(5,5-diphenyl-4-penten-1-yl)ammonium iodide] returned a CC50 at 72 h in series [1] of 10.1 ± 0.2 µg/mL. Besides, the EC50 in series [2] (setting [4]) came to 24 ± 0.7 µg/mL; in series [3] (setting [5]) it was 19.7 ± 1.5 µg/mL.

`C[C@@H]1[C@H](O)[C@@H](C)/C=C/C=C/C=C/C=C/C=C/C=C/C=C/[C@H](O[C@@H]2O[C@H](C)[C@@H](O)[C@H](N)[C@@H]2O)C[C@@H]2O[C@](O)(C[C@@H](O)C[C@@H](O)[C@H](O)CC[C@@H](O)C[C@@H](O)CC(=O)O[C@H]1C)C[C@H](O)[C@H]2C(=O)O` [AmB, Amphotericin B, reference compound] showed a CC50 at 72 h in series [1] (human) of 28.2 ± 0.5 µg/mL (≈ 30.5 µM).

Consider `C[N+](C)(C)CCCCC=C(c1ccccc1)c1ccccc1.[I-]` [Compound 3c, N,N,N-Trimethyl-N-(6,6-diphenylhex-5-en-1-yl)ammonium iodide], for which the CC50 at 72 h in series [1] came out at 12.5 ± 0.8 µg/mL. The figures for the EC50 in series [2] (setting [4]) and in series [3] (setting [5]) were 41.6 ± 2.8 µg/mL and 34.1 ± 5.1 µg/mL, respectively.

In turn, `C[N+](C)(C)CCC=C(c1ccccc1)c1ccccc1.[I-]` [Compound 3a, N,N,N-Trimethyl-N-(4,4-diphenylbut-3-en-1-yl)ammonium iodide] returned a CC50 at 72 h in series [1] of 39.2 ± 4.8 µg/mL. The EC50 in series [2] (setting [4]) came to 30 ± 1.4 µg/mL; in series [3] (setting [5]) it was 25 ± 0.7 µg/mL. In addition, the “degree of leishmanicidal activity, intracellular amastigotes” value (“degree … intracellular amastigotes” for short) in series [2] was “moderate (moderate activity: 25 μg/mL < EC50 < 50 μg/mL)”. Further, the “degree of leishmanicidal activity, axenic amastigotes” value (shortened to “degree … axenic amastigotes”) in series [3] is recorded as “high (high leishmanicidal activity: EC50 < 25 μg/mL)”.

Regarding `C[N+](C)(CI)CCO` [Compound 4b, N-Iodomethyl-N,N-dimethyl-N-(2-hydroxyet-1-yl)ammonium iodide], the CC50 at 72 h in series [1] is 17.8 ± 0.2 µg/mL. Further, the EC50 was found to be 23.9 ± 1 µg/mL in series [2] (setting [4]) and 19.6 ± 1.8 µg/mL in series [3] (setting [5]).

With `C[N+](C)(CI)CCCCC=C(c1ccccc1)c1ccccc1.[I-]` [Compound 2c, N-Iodomethyl-N,N-dimethyl-N-(6,6-diphenylhex-5-en-1-yl)ammonium iodide], the CC50 at 72 h in series [1] is 9.5 ± 0.3 µg/mL. For the same compound, the EC50 in series [2] (setting [4]) amounted to 17.6 ± 1 µg/mL; in series [3] (setting [5]) it was 14 ± 0.9 µg/mL.

`C[N+](C)(CCl)CCCCC=C(c1ccccc1)c1ccccc1.[I-]` [Compound 1c, N-Chloromethyl-N,N-dimethyl-N-(6,6-diphenylhex-5-en-1-yl)ammonium iodide] displayed a CC50 at 72 h in series [1] of 21 ± 0.5 µg/mL. Further, the EC50 in series [2] (setting [4]) is 49.4 ± 3.1 µg/mL; in series [3] (setting [5]) it was 40.5 ± 3.3 µg/mL.

Regarding `C[N+](C)(CCl)CCCC=C(c1ccccc1)c1ccccc1.[I-]` [Compound 1b, N-Chloromethyl-N,N-dimethyl-N-(5,5-diphenylpent-4-en-1-yl)ammonium iodide], in series [1], the CC50 at 72 h worked out at 21 ± 2 µg/mL. Also, the EC50 was 46.8 ± 1.2 µg/mL in series [2] (setting [4]) and 56.3 ± 3.7 µg/mL in series [3] (setting [5]).

In series [1], `C[N+](C)(CCl)CCC=C(c1ccccc1)c1ccccc1.[I-]` [Compound 1a, N-Chloromethyl-N,N-dimethyl-N-(4,4-diphenylbut-3-en-1-yl)ammonium iodide] came in with a CC50 at 72 h of 44.4 ± 4.9 µg/mL. Also, the values for the EC50 in series [2] (setting [4]) and in series [3] (setting [5]) were 38.4 ± 0.2 µg/mL and 35 ± 5.7 µg/mL, respectively.

In the case of `C[N+](C)(CI)CCC=C(c1ccccc1)c1ccccc1.[I-]` [Compound 2a, N-Iodomethyl-N,N-dimethyl-N-(4,4-diphenylbut-3-en-1-yl)ammonium iodide], the CC50 at 72 h in series [1] was 46 ± 5.4 µg/mL. The values for the EC50 in series [2] (setting [4]) and in series [3] (setting [5]) were 27.8 ± 3.9 µg/mL and 36.2 ± 0.1 µg/mL, respectively.

`C[N+](C)(C)CCCC=C(c1ccccc1)c1ccccc1.[I-]` [Compound 3b, N,N,N-Trimethyl-N-(5,5-diphenylpent-4-en-1-yl)ammonium iodide] yielded a CC50 at 72 h in series [1] of 27.2 ± 0.7 µg/mL. The EC50 was 24.7 ± 1.9 µg/mL in series [2] (setting [4]) and 25 ± 0.5 µg/mL in series [3] (setting [5]).

In series [1], `C[N+](C)(CCl)CCO` [Compound 4a, N-Choromethyl-N,N-dimethyl-N-(2-hydroxyet-1-yl)ammonium iodide] registered a CC50 at 72 h of 17.9 ± 0.02 µg/mL. The EC50 in series [2] (setting [4]) was 29.6 ± 2.8 µg/mL; in series [3] (setting [5]), 24.3 ± 1.3 µg/mL. Also, the “degree … intracellular amastigotes” value in series [2] is “moderate (moderate activity: 25 μg/mL < EC50 < 50 μg/mL)”. Besides, the “degree … axenic amastigotes” value in series [3] is given as “high (high leishmanicidal activity: EC50 < 25 μg/mL)”.

Regarding `C[N+](C)(C)CCO.[I-]` [Compound 4c, (2-Hydroxyethyl)trimethylammonium iodide, reference compound], the CC50 at 72 h in series [1] came to 372 ± 43.1 µg/mL. For the same compound, the EC50 is 150 ± 17.9 µg/mL in series [2] and under 50 µg/mL in series [3] (72 h, read-out: Axenic Amastigotes EC50, L. (V) panamensis axenic amastigotes, MTT, 72 h, mean ± standard deviation). Moreover, the “degree … intracellular amastigotes” value in series [2] is recorded as “almost no activity”. In addition, the “Axenic Amastigotes EC50” value in series [3] (L. (V) panamensis axenic amastigotes, MTT, 72 h, mean ± standard deviation) came to 47.2 ± 7.1 µg/mL. The “degree … axenic amastigotes” value in series [3] is given as “moderate activity”.
